This note sets out measurements from patent publication US7135466B2 (Kirin Beer Kabushiki Kaisha, priority 1999, dated 2006).

T1 sequence (P10721 26-976): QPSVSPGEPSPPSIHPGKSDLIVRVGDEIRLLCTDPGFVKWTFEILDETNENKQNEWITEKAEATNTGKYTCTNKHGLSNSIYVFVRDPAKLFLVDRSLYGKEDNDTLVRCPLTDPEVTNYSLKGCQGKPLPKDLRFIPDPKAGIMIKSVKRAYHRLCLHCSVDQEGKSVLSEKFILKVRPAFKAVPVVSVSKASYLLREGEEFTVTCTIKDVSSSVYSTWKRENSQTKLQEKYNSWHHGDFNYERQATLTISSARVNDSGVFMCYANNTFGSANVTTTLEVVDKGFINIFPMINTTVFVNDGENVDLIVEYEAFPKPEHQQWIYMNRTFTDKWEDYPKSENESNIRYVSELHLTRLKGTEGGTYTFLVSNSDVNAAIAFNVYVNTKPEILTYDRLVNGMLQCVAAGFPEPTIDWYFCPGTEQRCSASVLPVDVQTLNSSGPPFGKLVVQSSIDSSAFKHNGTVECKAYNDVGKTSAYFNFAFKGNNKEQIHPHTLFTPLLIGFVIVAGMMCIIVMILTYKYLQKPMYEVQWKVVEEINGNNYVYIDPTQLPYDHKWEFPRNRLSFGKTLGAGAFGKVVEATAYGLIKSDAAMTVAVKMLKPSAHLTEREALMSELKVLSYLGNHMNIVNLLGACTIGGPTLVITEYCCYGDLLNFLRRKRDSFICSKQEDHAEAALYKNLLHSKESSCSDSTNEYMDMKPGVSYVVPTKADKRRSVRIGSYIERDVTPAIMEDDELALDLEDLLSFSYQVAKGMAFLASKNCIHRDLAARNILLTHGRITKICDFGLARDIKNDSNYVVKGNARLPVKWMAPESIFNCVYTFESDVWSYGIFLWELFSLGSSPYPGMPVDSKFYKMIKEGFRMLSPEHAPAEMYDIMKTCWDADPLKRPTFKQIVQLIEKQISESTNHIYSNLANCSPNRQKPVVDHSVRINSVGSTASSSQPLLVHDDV

The first assay addresses T1, c-kit (Homo sapiens, UniProt P10721).
T1 construct: MO7e (human megakaryocytic leukemia cell line) which had been arrested for 20 hr; endogenous in cells; host or cells: MO7e human megakaryocytic leukemia cell line
Description: Inhibitory activity against c-kit autophosphorylation (MO7e cells, h-SCF). It is filed as cell-based. The conditions noted are these: MO7e cells, h-SCF stimulation; read-out: c-kit IC50. The gist of the method: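 First, human megakaryocytic leukemia MO7e cells arrested 20 hr receive compound for one hour. Second, SCF stimulation (50 ng/ml) runs 5 min, after which cells are solubilized. Third, tyrosine-phosphorylated c-kit in the lysate is quantified by sandwich ELISA with absorbance at 450 nm.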
Broadly, the IC50 is the concentration at which inhibition is half-maximal. For `COc1cc2nccc(Oc3ccc(NCCOc4cc(Cl)ccc4Cl)cc3)c2cc1OC` [Example 865, N-[2-(2,5-Dichlorophenoxy)ethyl]-N-{4-[(6,7-dimethoxy-4-quinolyl)oxy]phenyl}amine], the 50% inhibitory concentration (IC50) came out at 121 nM.
Take `COc1cc2nccc(Oc3ccc(NCCOc4ccc(F)cc4)cc3)c2cc1OC` [Example 866, N-{4-[(6,7-Dimethoxy-4-quinolyl)oxy]phenyl}-N-[2-(4-fluorophenoxy)ethyl]amine]: the IC50 was determined as 126 nM.
On the same count and under the same terms, next, `COc1cc2nccc(Oc3ccc(N(C)CCOc4ccc(F)cc4)cc3)c2cc1OC` [Example 867, N-{4-[(6,7-Dimethoxy-4-quinolyl)oxy]phenyl}-N-[2-(4-fluorophenoxy)ethyl]-N-methylamine]: 191 nM.
Still for that read-out and setting: with `COc1cc2nccc(Oc3ccc(NCCOc4ccccc4Cl)cc3)c2cc1OC` [Example 868, N-[2-(2-Chlorophenoxy)ethyl]-N-{4-[(6,7-dimethoxy-4-quinolyl)oxy]phenyl}amine] the figure was 70 nM; with `COc1cc2nccc(Oc3ccc(NCCOc4ccccc4)cc3)c2cc1OC` [Example 869, N-{4-[(6,7-Dimethoxy-4-quinolyl)oxy]phenyl}-N-(2-phenoxyethyl)amine], 80 nM; with `COc1cc2nccc(Oc3ccc(NCCOc4ccc(C)cc4)cc3)c2cc1OC` [Example 870, N-{4-[(6,7-Dimethoxy-4-quinolyl)oxy]phenyl}-N-[2-(4-methylphenoxy)ethyl]amine], 48 nM.
Still for that read-out and setting: with `COc1cc2nccc(Oc3ccc(NCCOc4cccc(C)c4)cc3)c2cc1OC` [Example 871, N-{4-[(6,7-Dimethoxy-4-quinolyl)oxy]phenyl}-N-[2-(3-methylphenoxy)ethyl]amine] the figure was 43 nM; with `COc1cc2nccc(Oc3ccc(NCCOc4ccccc4O)cc3)c2cc1OC` [Example 872, 2-(2-{4-[(6,7-Dimethoxy-4-quinolyl)oxy]anilino}ethoxy)phenol], 32 nM; with `COc1cc2ncnc(Oc3ccc(NCCOc4ccccc4)cc3)c2cc1OC` [Example 873, N-{4-[(6,7-Dimethoxy-4-quinazolinyl)oxy]phenyl}-N-(2-phenoxyethyl)amine], 69 nM.
Turning to `COc1cc2ncnc(Oc3ccc(NCCOc4ccccc4O)cc3)c2cc1OC` [Example 874, 2-(2-{4-[(6,7-Dimethoxy-4-quinazolinyl)oxy]anilino}ethoxy)phenol], the IC50 came to 151 nM.
On the same count and under the same terms, with `COc1cc2nccc(Oc3ccc(NCCOc4ccccc4)cc3C)c2cc1OC` [Example 875, N-{4-[(6,7-Dimethoxy-4-quinolyl)oxy]-3-methylphenyl}-N-(2-phenoxyethyl)amine] the figure was 115 nM.
The same measure, in the same setting: with `COc1cc2nccc(Oc3ccc(NCCOc4ccccc4C)cc3C)c2cc1OC` [Example 876, N-{4-[(6,7-Dimethoxy-4-quinolyl)oxy]-3-methylphenyl}-N-[2-(2-methylphenoxy)ethyl]amine] the figure was 242 nM; with `COc1cc2nccc(Oc3ccc(NCCOc4ccccc4Cl)cc3C)c2cc1OC` [Example 877, N-[2-(2-Chlorophenoxy)ethyl]-N-{4-[(6,7-dimethoxy-4-quinolyl)oxy]-3-methylphenyl}amine], 219 nM; with `COc1cc2nccc(Oc3ccc(NC(=S)NC(=O)c4ccccc4)cc3)c2cc1OC` [Example 897, N-Benzoyl-N′-{4-[(6,7-dimethoxy-4-quinolyl)oxy]phenyl}thiourea], 938 nM.
For `COc1cc2nccc(Oc3ccc(NC(=S)NC(=O)c4ccccc4Cl)cc3)c2cc1OC` [Example 898, N-(2-Chlorobenzoyl)-N′-{4-[(6,7-dimethoxy-4-quinolyl)oxy]phenyl}thiourea], the half-inhibitory concentration (IC50) amounted to 637 nM.
Still for that read-out and setting: next, `COc1cc2nccc(Oc3ccc(NC(=S)NC(=O)c4ccccc4Br)cc3)c2cc1OC` [Example 900, N-(2-Bromobenzoyl)-N′-{4-[(6,7-dimethoxy-4-quinolyl)oxy]phenyl}thiourea]: 372 nM.
Same read-out and setting: next, `COc1cc2nccc(Oc3ccc(NC(=S)NC(=O)c4ccccc4C(F)(F)F)cc3)c2cc1OC` [Example 902, N-{4-[(6,7-Dimethoxy-4-quinolyl)oxy]phenyl}-N′-[2-(trifluoromethyl)benzoyl]thiourea]: 299 nM; `COc1cc2nccc(Oc3ccc(NC(=S)NC(=O)c4ccccc4Br)c(F)c3)c2cc1OC` [Example 907, N-(2-Bromobenzoyl)-N′-{4-[(6,7-dimethoxy-4-quinolyl)oxy]-2-fluorophenyl}thiourea]: 572 nM; `COc1cc2nccc(Oc3ccc(NC(=S)NC(=O)c4ccccc4)cc3F)c2cc1OC` [Example 911, N-Benzoyl-N′-{4-[(6,7-dimethoxy-4-quinolyl)oxy]-3-fluorophenyl}thiourea]: 498 nM.
For `COc1cc2nccc(Oc3ccc(NC(=S)NC(=O)c4ccccc4C)cc3F)c2cc1OC` [Example 912, N-{4-[(6,7-Dimethoxy-4-quinolyl)oxy]-3-fluorophenyl}-N′-(2-methylbenzoyl)thiourea], the IC50 was 497 nM.
For `COc1cc2nccc(Oc3ccc(NC(=S)NC(=O)c4ccccc4Cl)cc3F)c2cc1OC` [Example 913, N-(2-Chlorobenzoyl)-N′-{4-[(6,7-dimethoxy-4-quinolyl)oxy]-3-fluorophenyl}thiourea], the concentration for half-maximal inhibition (IC50) worked out at 563 nM.
On the same count and under the same terms, next, `COc1cc2nccc(Oc3ccc(NC(=S)NC(=O)c4ccccc4Br)cc3F)c2cc1OC` [Example 914, N-(2-Bromobenzoyl)-N′-{4-[(6,7-dimethoxy-4-quinolyl)oxy]-3-fluorophenyl}thiourea]: 299 nM.
Still for that read-out and setting: with `COc1cc2nccc(Oc3ccc(NC(=S)NC(=O)c4ccccc4)cc3Cl)c2cc1OC` [Example 918, N-Benzoyl-N′-{3-chloro-4-[(6,7-dimethoxy-4-quinolyl)oxy]phenyl}thiourea] the figure was 552 nM; with `COc1cc2ncnc(Oc3ccc(NC(=S)NC(=O)c4ccccc4Cl)cc3Cl)c2cc1OC` [Example 920, N-(2-Chlorobenzoyl)-N′-{3-chloro-4-[(6,7-dimethoxy-4-quinazolinyl)oxy]phenyl}thiourea], 448 nM.
Same read-out and setting: with `COc1cc2nccc(Oc3ccc(NC(=S)NC(=O)c4ccccc4Br)cc3Cl)c2cc1OC` [Example 922, N-(2-Bromobenzoyl)-N′-{3-chloro-4-[(6,7-dimethoxy-4-quinolyl)oxy]phenyl}thiourea] the figure was 365 nM; with `COc1cc2nccc(Oc3ccc(NC(=S)NC(=O)c4ccccc4C(F)(F)F)cc3Cl)c2cc1OC` [Example 924, N-{3-Chloro-4-[(6,7-dimethoxy-4-quinolyl)oxy]phenyl}-N′-[2-(trifluoromethyl)benzoyl]thiourea], 440 nM.
As to `COc1cc2ncnc(Oc3ccc(NC(=S)NC(=O)c4ccccc4Cl)cc3)c2cc1OC` [Example 928, N-(2-Chlorobenzoyl)-N′-{4-[(6,7-dimethoxy-4-quinazolinyl)oxy]phenyl}thiourea], the IC50 turned out to be 289 nM.

Still in this assay, the particulars now being: Mo7e, figure in parentheses in −( ); at 1000 nM.
For orientation: inhibition means how much of the control response was suppressed. As for `COc1cc2nccc(Oc3ccc(NC(=S)NC(=O)c4ccccc4OC)cc3)c2cc1OC` [Example 901, N-{4-[(6,7-Dimethoxy-4-quinolyl)oxy]phenyl}-N′-(2-methoxybenzoyl)thiourea], the inhibition at 1 µM was 27%.
Still for that read-out and setting: next, `COc1cc2nccc(Oc3ccc(NC(=S)NC(=O)c4ccccc4)c(F)c3)c2cc1OC` [Example 903, N-Benzoyl-N′-{4-[(6,7-dimethoxy-4-quinolyl)oxy]-2-fluorophenyl}thiourea]: 34%.
On the same count and under the same terms, next, `COc1cc2nccc(Oc3ccc(NC(=S)NC(=O)c4ccccc4C)c(F)c3)c2cc1OC` [Example 904, N-{4-[(6,7-Dimethoxy-4-quinolyl)oxy]-2-fluorophenyl}-N′-(2-methylbenzoyl)thiourea]: 46%; `COc1cc2nccc(Oc3ccc(NC(=S)NC(=O)c4ccccc4F)c(F)c3)c2cc1OC` [Example 906, N-{4-[(6,7-Dimethoxy-4-quinolyl)oxy]-2-fluorophenyl}-N′-(2-fluorobenzoyl)thiourea]: 29%.
On the same count and under the same terms, with `COc1cc2nccc(Oc3ccc(NC(=S)NC(=O)c4ccccc4OC)c(F)c3)c2cc1OC` [Example 909, N-{4-[(6,7-Dimethoxy-4-quinolyl)oxy]-2-fluorophenyl}-N′-(2-methoxybenzoyl)thiourea] the figure was 32%.
`COc1cc2nccc(Oc3ccc(NC(=S)NC(=O)c4ccccc4C(F)(F)F)c(F)c3)c2cc1OC` [Example 910, N-{4-[(6,7-Dimethoxy-4-quinolyl)oxy]-2-fluorophenyl}-N′-[2-(trifluoromethyl)benzoyl]thiourea]: the inhibition at 1 µM is 38%.
On the same count and under the same terms, with `COc1cc2nccc(Oc3ccc(NC(=S)NC(=O)c4ccccc4OC)cc3F)c2cc1OC` [Example 916, N-{4-[(6,7-Dimethoxy-4-quinolyl)oxy]-3-fluorophenyl}-N′-(2-methoxybenzoyl)thiourea] the figure was 16%; with `COc1cc2nccc(Oc3ccc(NC(=S)NC(=O)c4ccccc4C)cc3Cl)c2cc1OC` [Example 919, N-{3-Chloro-4-[(6,7-dimethoxy-4-quinolyl)oxy]phenyl}-N′-(2-methylbenzoyl)thiourea], 11%; with `COc1cc2nccc(Oc3ccc(NC(=S)NC(=O)c4ccccc4F)cc3Cl)c2cc1OC` [Example 921, N-{3-Chloro-4-[(6,7-dimethoxy-4-quinolyl)oxy]phenyl}-N′-(2-fluorobenzoyl)thiourea], 42%.
Same read-out and setting: next, `COc1cc2nccc(Oc3ccc(NC(=S)NC(=O)c4ccccc4OC)cc3Cl)c2cc1OC` [Example 923, N-{3-Chloro-4-[(6,7-dimethoxy-4-quinolyl)oxy]phenyl}-N′-(2-methoxybenzoyl)thiourea]: 25%; `COc1cc2ncnc(Oc3ccc(NC(=S)NC(=O)c4ccccc4)cc3)c2cc1OC` [Example 926, N-Benzoyl-N′-{4-[(6,7-dimethoxy-4-quinazolinyl)oxy]phenyl}thiourea]: 31%.
